In PubChem BioAssay AID1963844 (Molecular Pharmacology Branch, DTP, NCI, 2024):

Tested on: 422866-222-R5-J1-PDC complex spheroid viability
Assay: Anticancer human tumor 422866-222-R5-J1-PDC patient-derived pancreatic adenocarcinoma cell line growth inhibition [POLQ]
Details: for IC50: curve of first compound; for viability, T/C: stronger effect = lower value
Procedure: Multicellular complex tumor spheroid response to Polymerase (POL) inhibitors (novobiocin, ART-558, RP6685) in combination with a variety of drugs and investigational agents in selected tumor cell lines
The POL inhibitors (novobiocin, ART-558, and RP6685) were evaluated both individually and in combination with standard of care and investigational anticancer small molecules within a complex spheroid model of solid tumors. . Complex spheroids include a stromal component modeled by human endothelial cells (HUVEC) and fibroblasts modeled by human mesenchymal stem cells (MSCs). The concentration ranges selected for each drug and investigational agent were based upon clinically achievable concentrations if the clinical Cmax of the agent was known.
Compounds. The drugs and investigational agents: novobiocin (NSC847541), ART-558 (NSC835418), RP-6685 (NSC848927), peposertib (NSC802822), ceralasertib (NSC780249), elimusertib (NSC800525), camonsertib (NSC841442), AZD-1390 (NSC803789), olaparib (NSC753686), talazoparib (NSC767125), rucaparib (NSC756644), sotorasib (NSC818433), MRTX-1133 (NSC836407), SN-38 (NSC673596), topotecan (NSC609699), epotoside (NSC141540), doxorubicin (NSC123127), gemcitabine (NSC613327), 5-fluorouracil (NSC19893), paclitaxel (NSC125973), vemurafenib (NSC761431), MSA-2 (NSC828583), SN-011 (NSC837082), adavosertib (NSC754352), prexasertib (NSC758257), carboplatin (NSC241240) and oxaliplatin (NSC266046), were obtained from the National Cancer Institute (NCI) Developmental Therapeutics Program Chemical Repository (21). The FDA-approved anticancer drug set is available from the Developmental Therapeutics Program at https://dtp.cancer.gov/organization/dscb/obtaining/. […] The stock solutions were prepared in dimethyl sulfoxide (DMSO, Sigma-Aldrich, St. Louis, MO, cat. D2650), except for the platinum compounds which were prepared in saline (Quality Biological, Gaithersburg, MD, cat. 114-055-101), at 800-fold the tested concentration and stored at -70 degrees C prior to their use. All drugs and investigational agents were tested over a range starting from a high concentration at or near the clinical Cmax and decreasing in half-log increments. If the clinical Cmax for an agent had not been determined, the highest concentration tested was 10 microM, except for SN-38, which was tested at a high concentration of 1 microM.
Cell Culture. All cells were maintained in an incubator at 37 degrees C and 5% CO2 with 95% humidity. The PDC lines were cultured according to standard operating procedures established by the NCI PDMR (https://pdmr.cancer.gov). Table 3 of the manuscript, lists the cell lines along with the number of the three cell types plated to form the mct-spheroids and media for tumor cell growth. After thawing, all PDC lines, except 997537-175-T-J1-PDC and 415267-285-R-J2-PDC, were cultured in Matrigel-coated flasks prepared with a working solution of 1X Ham's F-12 nutrient mix, without supplementation (Thermo Fisher Scientific, cat. 11765054), 100 U/mL penicillin-streptomycin (Thermo Fisher Scientific, cat. 15140122), and 2.5% Matrigel (Corning Inc., Corning, NY, cat. 354248) for the first three passages. The two PDC lines 997537-175-T-J1-PDC and 415267-285-R-J2-PDC were cultured on uncoated flasks. The 857933-349-R-J2-PDC line was cultured in 6C/Colon 1B media containing advanced DMEM/F-12 (Thermo Fisher Scientific, cat. 12634028), 10 mM HEPES (Thermo Fisher Scientific, cat. 15630080), 1X GlutaMAX supplement (Thermo Fisher Scientific, cat. 35050061), 0.1 mg/mL primocin (InvivoGen, San Diego, CA, cat. ant-pm-2), 10% defined fetal bovine serum, heat inactivated (HyClone Laboratories Inc., Logan, UT, cat. SH30070.03HI), 50% L-WRN conditioned media (ATCC, cat. CRL-3276), 1.25 mM N-Acetyl-L-cysteine (Sigma-Aldrich, cat. A9165), 10 mM nicotinamide (Sigma-Aldrich, cat. N0636), 1X B-27 supplement (Thermo Fisher Scientific, cat. 17504044), 1X N-2 supplement (Thermo Fisher Scientific, cat. […]

[1] = second compound 0.0316 µM, first compound 0.0316 µM
[2] = second compound 0.0316 µM, first compound 0.1 µM
[3] = second compound 0.0316 µM, first compound 0.316 µM
[4] = second compound 0.0316 µM, first compound 1 µM
[5] = second compound 0.0316 µM, first compound 3.16 µM
[6] = second compound 0.0316 µM, first compound 10 µM
[7] = second compound 0.1 µM, first compound 0.0316 µM
[8] = second compound 0.1 µM, first compound 0.1 µM
[9] = second compound 0.1 µM, first compound 0.316 µM
[10] = second compound 0.1 µM, first compound 1 µM
[11] = second compound 0.1 µM, first compound 3.16 µM
[12] = second compound 0.1 µM, first compound 10 µM
[13] = second compound 0.316 µM, first compound 0.0316 µM
[14] = second compound 0.316 µM, first compound 0.1 µM
[15] = second compound 0.316 µM, first compound 0.316 µM
[16] = second compound 0.316 µM, first compound 1 µM
[17] = second compound 0.316 µM, first compound 3.16 µM
[18] = second compound 0.316 µM, first compound 10 µM
[19] = second compound 1 µM, first compound 0.0316 µM
[20] = second compound 1 µM, first compound 0.1 µM
[21] = second compound 1 µM, first compound 0.316 µM
[22] = second compound 1 µM, first compound 1 µM
[23] = second compound 1 µM, first compound 3.16 µM
[24] = second compound 1 µM, first compound 10 µM
[25] = second compound 3.16 µM, first compound 0.0316 µM
[26] = second compound 3.16 µM, first compound 0.1 µM
[27] = second compound 3.16 µM, first compound 0.316 µM
[28] = second compound 3.16 µM, first compound 1 µM
[29] = second compound 3.16 µM, first compound 3.16 µM
[30] = second compound 3.16 µM, first compound 10 µM
[31] = second compound 10 µM, first compound 0.0316 µM
[32] = second compound 10 µM, first compound 0.1 µM
[33] = second compound 10 µM, first compound 0.316 µM
[34] = second compound 10 µM, first compound 1 µM
[35] = second compound 10 µM, first compound 3.16 µM
[36] = second compound 10 µM, first compound 10 µM
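Also: spheroids exposed to compounds for one week before readout.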
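For viability, T/C in this document: percent of DMSO vehicle wells luminescence so 100% = untreated viability.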

With `COc1cc(C2c3cc4c(cc3C(OC3OC5COC(C)OC5C(O)C3O)C3COC(=O)C23)OCO4)cc(OC)c1O` (centres undefined) + COC1C(OC(N)=O)C(O)C(Oc2ccc3c(O)c(NC(=O)c4ccc(O)c(CC=C(C)C)c4)c(=O)oc3c2C)OC1(C)C the IC50 (second compound 0.0316 µM) was 1330 nM, the IC50 (second compound 0.1 µM) was 966 nM and the IC50 (second compound 0.316 µM) was 770 nM. It also gave an IC50 (second compound 1 µM) of 1070 nM, an IC50 (second compound 3.16 µM) of 854 nM and an IC50 (second compound 10 µM) of 715 nM. The viability, T/C [1] was 97.7%, the viability, T/C [2] was 95% and the viability, T/C [3] was 72.5%. For the same compound, the viability, T/C [4] was 51.3%, the viability, T/C [5] was 45.4% and the viability, T/C [6] was 31.5%. The viability, T/C [7] was 103%, the viability, T/C [8] was 94.7% and the viability, T/C [9] was 73.5%. The viability, T/C [10] was 49.3%, the viability, T/C [11] was 38.2% and the viability, T/C [12] was 36.4%. For the same compound, the viability, T/C [13] was 101%, the viability, T/C [14] was 98.6% and the viability, T/C [15] was 61.8%. It also gave a viability, T/C [16] of 51.4%, a viability, T/C [17] of 35.7% and a viability, T/C [18] of 34.9%. The viability, T/C [19] was 109%, the viability, T/C [20] was 93.2% and the viability, T/C [21] was 85.5%. It also gave a viability, T/C [22] of 48.3%, a viability, T/C [23] of 38% and a viability, T/C [24] of 32.7%. For the same compound, the viability, T/C [25] was 87.2%, the viability, T/C [26] was 88.3% and the viability, T/C [27] was 82.4%. For the same compound, the viability, T/C [28] was 44.8%, the viability, T/C [29] was 39.4% and the viability, T/C [30] was 35.5%. The viability, T/C [31] was 96.1%, the viability, T/C [32] was 101% and the viability, T/C [33] was 64.4%. The viability, T/C [34] was 51%, the viability, T/C [35] was 41.3% and the viability, T/C [36] was 36.7%.
Compound `COc1cc(C2c3cc4c(cc3C(OC3OC5COC(C)OC5C(O)C3O)C3COC(=O)C23)OCO4)cc(OC)c1O` (centres undefined) + Cc1cccc(N(C)C(=O)C2C(O)CCN2c2nc(C)cc(C(F)(F)F)c2C#N)c1 has an IC50 (second compound 0.0316 µM) of 1230 nM, an IC50 (second compound 0.1 µM) of 1650 nM and an IC50 (second compound 0.316 µM) of 1360 nM. The IC50 (second compound 1 µM) was 735 nM, the IC50 (second compound 3.16 µM) was 714 nM and the IC50 (second compound 10 µM) was 876 nM. For the same compound, the viability, T/C [1] was 96.8%, the viability, T/C [2] was 84.3% and the viability, T/C [3] was 69%. The viability, T/C [4] was 53.5%, the viability, T/C [5] was 37.9% and the viability, T/C [6] was 33.2%. It also gave a viability, T/C [7] of 101%, a viability, T/C [8] of 92.9% and a viability, T/C [9] of 63.3%. The viability, T/C [10] was 58.6%, the viability, T/C [11] was 44.2% and the viability, T/C [12] was 31.8%. The viability, T/C [13] was 110%, the viability, T/C [14] was 92.7% and the viability, T/C [15] was 68.8%. The viability, T/C [16] was 50.6%, the viability, T/C [17] was 47.7% and the viability, T/C [18] was 35.8%. For the same compound, the viability, T/C [19] was 105%, the viability, T/C [20] was 94.7% and the viability, T/C [21] was 61.8%. The viability, T/C [22] was 46.5%, the viability, T/C [23] was 38.5% and the viability, T/C [24] was 29.7%. For the same compound, the viability, T/C [25] was 103%, the viability, T/C [26] was 88.8% and the viability, T/C [27] was 56.6%. The viability, T/C [28] was 49.6%, the viability, T/C [29] was 40.1% and the viability, T/C [30] was 33.7%. For the same compound, the viability, T/C [31] was 91.5%, the viability, T/C [32] was 77.1% and the viability, T/C [33] was 56%. For the same compound, the viability, T/C [34] was 49.9%, the viability, T/C [35] was 45.1% and the viability, T/C [36] was 37%.
